Legend:
[1] = system: β-lactamase-harboring MDR P. aeruginosa clinical isolates; assay: Triple combination susceptibility (β-lactam + avibactam + compound 2); format: cell-based, Pseudomonas aeruginosa
From the text: The diazabicyclooctane β-lactamase inhibitor, avibactam, is able to inhibit a wide range of serine β-lactamases (class A, C, and D) but not metallo-β-lactamases (class B) (50, 51).^50,51 However, the high concentration of avibactam required to neutralize the effects of β-lactamase enzymes in these phenotypes is indicative of concomitant permeability barriers in the isolates, such as reduced porin uptake. […] The results of this study are shown in (FIG. 6). All isolates were resistant to all three β-lactam antibiotics used for the study. […] As expected, the study with meropenem was slightly different from others.
(§1) Antimicrobial Susceptibility Assay. The in vitro antimicrobial activity of all compounds/antibiotics against a panel of bacteria was evaluated by microbroth dilution method in accordance with the Clinical and Laboratory Standards Institute (CLSI) guidelines. Overnight grown bacterial cultures were diluted in saline to achieve a 0.5 McFarland turbidity, followed by 1:50 dilution in Mueller-Hinton broth (MHB) for inoculation to a final concentration of approximately 5×10^5CFU/mL. The antimicrobial agents were 2-fold serially diluted in MHB in a 96-well plate and incubated at 37° C. with equal volumes of inoculum for 18 h. The lowest concentration that prevented the visible growth of bacteria was defined as the MIC for each antimicrobial agent. The broth with or without bacterial cells was used as positive or negative control, respectively.
Checkerboard Assay. Combination studies with different antibiotics were performed in 96-well plates as previously described (22). Briefly, the antibiotic of interest was serially diluted in MHB along the abscissa while the adjuvant (newly synthesized conjugates) was serially diluted in MHB along the ordinate. This creates a 10×7 matrix wherein each well consists of a combination of different antibiotic and adjuvant concentrations. Overnight grown bacterial cultures were diluted in saline to achieve a 0.5 McFarland turbidity, followed by 1:50 dilution in Mueller-Hinton broth (MHB) for inoculation to a final concentration of approximately 5×10^5CFU/mL. Equal volume of this bacterial culture was then added to each well and incubated at 37° C. for 18 h. After incubation, the plates were read on EMax® Plus microplate reader (Molecular Devices, Sunnyvale, Calif., USA) at 590 nm. MIC was recorded as wells with the lowest concentration of drugs with no bacterial growth. The fractional inhibitory concentration (FIC) for each antibiotic was calculated by dividing the MIC of the antibiotic in the presence of adjuvant by the MIC of the antibiotic alone. Similarly, the FIC of adjuvant was calculated by dividing the MIC of the adjuvant in the presence of antibiotic by the MIC of the adjuvant alone. FIC index is the sum of both FICs. FIC indices of <0.5 were deemed synergistic; 0.5-4, no interaction; and >4, antagonistic.

MRSA ATCC 33592 = assay: MIC, microbroth dilution; format: cell-based; conditions: standalone
Protocol: as §1

MSSE CANWARD-2008 81388 = assay: MIC, microbroth dilution; format: cell-based; conditions: standalone
Protocol: as §1

E. coli ATCC 25922 = assay: MIC, microbroth dilution; format: cell-based; conditions: standalone
Protocol: as §1

[2] = humans; cited from earlier work

Compound	effect on activity of ceftolozane-tazobactam combinations ([1]; all β-lactamase-harboring isolates tested)	isolates below aztreonam susceptible breakpoint ([1]; aztreonam + avibactam + compound 2, 8 μM each)	isolates reaching aztreonam susceptibility breakpoint (≤8 μg/ml) ([1]; aztreonam + single adjuvant 8 μM)	isolates below ceftazidime susceptible breakpoint ([1]; ceftazidime + avibactam + compound 2, 8 μM each)	isolates reaching ceftazidime susceptibility breakpoint (≤8 μg/ml) ([1]; ceftazidime + single adjuvant 8 μM)	isolates reaching meropenem susceptible levels ([1]; meropenem + avibactam + compound 2, 8 μM each)	isolates reaching meropenem susceptibility level ([1]; meropenem + single adjuvant 8 μM)	potentiation of ceftazidime ([1]; single adjuvant at 8 μM, five isolates) [fold]	MIC (MRSA ATCC 33592) [µg/mL]	MIC (MSSE CANWARD-2008 81388) [µg/mL]	MIC (E. coli ATCC 25922) [µg/mL]	achievable plasma concentration [2] [µg/mL]
5-O-(Octylcyclam)-tobramycin.9TFA [Compound 2]	did not improve the activity	all five isolates	two out of five	all isolates	one of five	three out of five	zero of five	4	64	16	64	
C[C@@H](O)[C@H]1C(=O)N2C(C(=O)O)=C(S[C@@H]3CN[C@H](C(=O)N(C)C)C3)[C@H](C)[C@H]12 [Meropenem]												> 8
